Results as given in PMC7332671 (Acta Pharmaceutica Sinica. B, 2020).
Read-outs that look alike come from different tables or passages of the source.

Columns and labels:
Assay in all cases: SPR
Format in all cases: binding
[1] = target: T1, P53 (Homo sapiens, UniProt P04637)
[2] = target: T1, P53; remark: listed apart in the source
[3] = target: T1, P53; remark: listed apart in the source

T1 sequence (P04637 94-312): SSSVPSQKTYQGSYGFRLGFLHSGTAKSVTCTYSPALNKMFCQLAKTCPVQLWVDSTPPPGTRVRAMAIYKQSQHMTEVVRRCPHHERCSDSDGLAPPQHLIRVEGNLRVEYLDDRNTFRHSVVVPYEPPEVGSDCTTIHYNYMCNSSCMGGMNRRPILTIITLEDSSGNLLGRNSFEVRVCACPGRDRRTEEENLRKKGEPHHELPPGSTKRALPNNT

Compound | Kd [1] [µM] | also measured
20(S)-Ro | 10.2 | –
CC(C)=CCC[C@](C)(O)[C@H]1CC[C@]2(C)[C@@H]1[C@H](O)C[C@@H]1[C@@]3(C)CC[C@H](O)C(C)(C)[C@@H]3CC[C@]12C [20(S)-PPD] | 41.1 | –
CC(C)=CCC[C@](C)(O)[C@H]1CC[C@]2(C)[C@@H]1[C@H](O)C[C@@H]1[C@@]3(C)CC[C@H](O)C(C)(C)[C@@H]3[C@@H](O)C[C@]12C [(S)-PPT, 20(S)-Protopanaxatriol] | – | Kd [2]: 6.63 µM
CCn1c2ccccc2c2cc(CNC)ccc21 [PhiKan083] | – | Kd [3]: 122 µM
